The test system of test [1] is E. coli DH10B pBCSK(−) producing R228P variant. In words: MIC by agar dilution, E. coli DH10B producing VIM-2 R228P. It is filed as cell-based. The conditions noted are these: Escherichia coli, MHA. As for the experimental part: (§1) E. coli DH10B (Invitrogen, Carlsbad, Calif.) was used as a host strain for pBCSK (−) blaVIM-2, and to obtain a mutant library at position 228 by site-saturation mutagenesis, using the QuickChange XL Site-directed Mutagenesis Kit (Stratagene). Briefly, primers that capture all 19 variants at MBL position 228 were designed and PCR mutagenic reactions were conducted using pBCSK (−) blaVIM-2 as a template, and transformed into E. coli DH10B. Single colonies were selected for plasmid purification, and successful mutagenesis was verified by complete DNA sequencing.
(§2) The effect of Zn^2+ availability was also tested by agar dilution using MH supplemented with 250 μM ZnSO4 or 5 μM EDTA. Reported values are the mode of at least 3 biological replicates.

For test [2], the system named is E. coli DH10B pBCSK(−) producing R228K variant. In words: MIC by agar dilution, E. coli DH10B producing VIM-2 R228K. In kind it is cell-based. The conditions noted are these: Escherichia coli, MHA. As for the experimental part: as §1, §2
(Agar dilution tests growth on a series of plates holding different concentrations.)

Test [3] concerns E. coli DH10B pBCSK(−) producing R228Y variant. The test can be described thus: MIC by agar dilution, E. coli DH10B producing VIM-2 R228Y. It is filed as cell-based. The conditions noted are these: Escherichia coli, MHA. As for the experimental part: as §1, §2
In test [4] the test system is E. coli DH10B pBCSK(−) producing VIM-24 (R228L). In words: MIC by agar dilution, E. coli DH10B producing VIM-24. In kind it is cell-based. The conditions noted are these: Escherichia coli, MHA, read-out: MIC. As for the experimental part: as §1, §2
A further test relates to E. coli pBC SK(−). In words: MIC by agar dilution, E. coli DH10B host with empty phagemid. The conditions noted are these: Escherichia coli, MHA. In kind it is cell-based. How it is done:
as §1, §2

Test [5] deals with E. coli DH10B pBCSK(−) producing R228M variant. The test can be described thus: MIC by agar dilution, E. coli DH10B producing VIM-2 R228M. It is filed as cell-based. The conditions noted are these: Escherichia coli, MHA. How it is done: as §1, §2
Test [6] deals with E. coli DH10B pBCSK(−) producing VIM-2 (228R). The test can be described thus: MIC by agar dilution, E. coli DH10B producing VIM-2. In kind it is cell-based. The conditions noted are these: Escherichia coli, MHA, read-out: MIC.
From the text: A forward primer containing the SacI restriction site and a reverse primer with the BamHI restriction site were used to amplify blaVIM-2 including the pET24a(+) ribosomal binding site, using plasmid pET-24a(+)-blaVIM-2 as template. The product was then subcloned into phagemid pBCSK (−) (Agilent (Santa Clara, Calif.)) using the above restriction sites, and thus placing the blaVIM-2 open reading frame under control of the lac promoter, to yield phagemid pBCSK (−) blaVIM-2.
as §1, §2

The test system of test [7] is E. coli DH10B pBCSK(−) producing R228Q variant. The test can be described thus: MIC by agar dilution, E. coli DH10B producing VIM-2 R228Q. In kind it is cell-based. The conditions noted are these: Escherichia coli, MHA. As for the experimental part:
as §1, §2

Test [8] has as its target T1, VIM-24 (Escherichia coli, UniProt Q5U7L7, R205L).
T1 construct: which corresponds to cleavage after residues 20 (plus an additional Met residue on the N-terminus); made in house; host or cells: E. coli BL21(DE3) pLys, plasmid pET-24a(+)-blaVIM-24-S21
In words: Steady-state kinetic parameters of substrate hydrolysis by VIM-24. In kind it is biochemical. The conditions noted are these: pH 7.5, 25° C., average ± SD, triplicate. The source says: Steady-state reactions were followed using an Agilent (Santa Clara, Calif.) 8453 Diode Array spectrophotometer as previously described. […] For ceftazidime and cefepime, a 0.2-cm path length quartz cuvette was used. A nonlinear leastsquares fit of the data (Henri Michaelis-Menten equation) using Enzfitter (Biosoft Corporation, Ferguson, Mo.) was employed to obtain the steady-state kinetic parameters Vmax and KM according to equation 1.
In this equation the observed first-order rate constant k=kcat/KM*[E].

The target in the next test is T2, VIM-2 (Pseudomonas aeruginosa, UniProt Q9K2N0).
T2 construct: made in house; host or cells: E. coli BL21(DE3) pLys, plasmid pET-24a(+)-blaVIM-2-S21
The test can be described thus: BTZ inhibition kinetics of nitrocefin hydrolysis by VIM-2. It is filed as biochemical, P. aeruginosa. An excerpt: (§3) Analysis of BTZ inhibition kinetics. Models involving one, or two-step slow binding were considered to analyze BTZ inhibition of NFC hydrolysis by VIM-2 and VIM-24 (Scheme 1).
(§4) Here E represents the free enzyme, and I the free inhibitor, EI is the final enzyme-inhibitor complex for a single step slow binding mechanism, and E*I is the enzyme-inhibitor complex formed after conformational changes in a two-step slow binding mechanism. Therefore, the dissociation constant for the EI complex (Ki), also called the inhibitor constant, is defined as Ki=k−1/k1; the dissociation constant for the E*I complex (Ki′) is defined as Ki′=k−2/k2, and the overall dissociation constant for the two-step mechanism (Ki*) is defined as Ki*=Ki/(1+([…])).
(§5) The Ki for each inhibitor was determined by direct competition assays under steady-state conditions. The initial velocity was measured in the presence of a constant concentration of enzyme (3 nM for VIM-2 and 4 nM for VIM-24) with increasing concentrations of inhibitor (5-60 μM) against a fixed concentration (5 x KM) of the indicator substrate, NCF, as previously described (42-44). The reactions were started by addition of VIM-2 or VIM-24 to substrate or to mixtures of substrate and inhibitor. Data were linearized by plotting inverse initial steady-state velocities (1/v0) against inhibitor concentration (I). Ki (observed) was determined by dividing the value for the y intercept by the slope of the line. Ki determinations were corrected to account for the affinity of NCF for the β-lactamase according to equation 3.
(§6) Measurements of association rate constants for inhibitor binding were carried out at 25° C. in 10 mM HEPES at pH 7.5 supplemented with 200 mM NaCl, 50 μM […] and 50 μg/ml BSA, in the presence of several concentrations of each compound. Reactions were then initiated by the addition of β-lactamase (3 nM VIM-2 or 4 nM VIM-24) to a mixture of 50 μM NCF and each BTZ without pre-incubation. Inhibitor association rate constants were estimated from linear extrapolation of the observed rate constant for inhibition (kobs), which was obtained by fitting progress curves of NFC hydrolysis to Eq. 4:
(§7) As previously described, the linear dependence of kobs vs. [I] at limiting I concentration approximates second-order rate constant k2/Ki. The observed second-order rate constant also includes an adjustment for competition between inhibitor and substrate binding (Eq. 5).
(§8) Also, vs calculated from the progress curves of NCF hydrolysis for each concentration of inhibitor were used to determine Ki*, according to the relationship shown in equation 6 (5). The value reported is the mean of three velocities±SD.
(§9) To further test the time-dependent inhibition mechanism of inhibitor binding, assays using dilutions of pre-formed complexes were performed. For these experiments, 1 μM of enzyme was incubated with varying concentrations of the inhibitor which allowed for complete inactivation of the enzyme during the 5 min incubation at 25° C. The reactions were then diluted 2,000-fold in 10 mM HEPES at pH 7.5 supplemented with 200 mM NaCl, 50 μM […] and 50 μg/ml BSA, which contained 50 μM NCF. Reactivation of the enzyme based on NCF hydrolysis was monitored over time. Control reaction with the free enzyme was performed in the same fashion.

Test [9] deals with T1, VIM-24. In words: BTZ inhibition kinetics of nitrocefin hydrolysis by VIM-24. In kind it is biochemical.
From the text: as §3, §4, §5, §6, §7, §8, §9

[10] abbreviates: rate constant for breakdown of E*I.
Setting [11] is: rate constant for formation of E*I.

Consider five compounds from patent publication US10251869B2, “Compositions and methods of inhibiting metallo-β-lactamases” (priority 2014, dated 2019).

Converted amounts (≈) assume the structure as drawn.

With `CC1(C)S[C@@H]2[C@H](NC(=O)[C@H](N)c3ccccc3)C(=O)N2[C@H]1C(=O)O` [Ampicillin], the MIC in test [1] came to 32 µg/mL (≈ 91.6 µM); in [2], 32 µg/mL (≈ 91.6 µM); in [3] it was 1020 µg/mL (≈ 2930 µM); in [4], 512 µg/mL (≈ 1470 µM); against E. coli pBC SK(−) it was 4 µg/mL (≈ 11.4 µM); in [5] it was 1020 µg/mL (≈ 2930 µM). The values for the MIC in test [6] and in test [7] were 512 µg/mL (≈ 1470 µM) and 1020 µg/mL (≈ 2930 µM), respectively.

On to `CO/N=C(\C(=O)N[C@@H]1C(=O)N2C(C(=O)O)=C(COC(C)=O)CS[C@H]12)c1csc(N)n1` [Cefotaxime], for which the MIC in test [1] worked out at 1 µg/mL (≈ 2.2 µM); in test [2] it was 1 µg/mL (≈ 2.2 µM); in test [3], 16 µg/mL (≈ 35.1 µM); in test [4], 16 µg/mL (≈ 35.1 µM); in the test with E. coli pBC SK(−), 0.06 µg/mL (≈ 0.132 µM); in test [5], 16 µg/mL (≈ 35.1 µM). Further, the MIC in test [6] amounted to 8 µg/mL (≈ 17.6 µM); in [7], 32 µg/mL (≈ 70.3 µM).

For the compound `CO/N=C(\C(=O)N[C@@H]1C(=O)N2C(C(=O)O)=C(CSc3nc(=O)c(=O)[nH]n3C)CS[C@H]12)c1csc(N)n1` [Ceftriaxone], the MIC in test [1] amounted to 0.5 µg/mL (≈ 0.902 µM); in test [2] it was 1 µg/mL (≈ 1.8 µM); in test [3], 16 µg/mL (≈ 28.9 µM); in test [4], 8 µg/mL (≈ 14.4 µM); against E. coli pBC SK(−), 0.5 µg/mL (≈ 0.902 µM); in [5] it was 16 µg/mL (≈ 28.9 µM). Also, the MIC in test [6] came to 8 µg/mL (≈ 14.4 µM); in test [7] it was 32 µg/mL (≈ 57.7 µM).

Take `CC(=O)OCC1=C(C(=O)O)N2C(=O)[C@@H](NC(=O)Cc3cccs3)[C@H]2SC1` [Cephalothin]: the MIC is 16 µg/mL (≈ 40.4 µM) in test [1], 16 µg/mL (≈ 40.4 µM) in test [2], 8 µg/mL (≈ 20.2 µM) in the test with E. coli pBC SK(−) and 1020 µg/mL (≈ 2580 µM) in test [7]. This compound also returned a Kcat on VIM-24 [8] of 150 ± 9 s⁻¹. Moreover, the Km on VIM-24 [8] is 33 ± 5 µM.

Turning to `O=C(O)[C@H]1CS[C@@H]2CS[C@@H](CS)N12` [D-CS319], the inhibitory constant (Ki) at VIM-2 (initial complex EI, NCF as reporter substrate) is 5400 ± 400 nM; at VIM-2 (overall dissociation constant of two-step mechanism (E*I)), 180 ± 20 nM. Also, the “k−2” value is 0.0003 ± 1 × 10^−4 s^−1 at VIM-2 (setting [10]) and 0.004 ± 1 × 10^−3 s^−1 on VIM-24 [9] (setting [10]). Besides, the k2 is given as 0.01 ± 1 × 10^−3 s^−1 at VIM-2 (setting [11]) and 0.07 ± 4 × 10^−3 s−1 on VIM-24 [9] (setting [11]).

For orientation: Km means the concentration of substrate that gives half-maximal velocity. What is called Ki is a measure of affinity in units of concentration, obtained from inhibition or displacement.
